Experimental data reported in patent US20230028441A1, “NOVEL HETEROARYL-TRIAZOLE COMPOUNDS AS PESTICIDES” (Bayer Aktiengesellschaft, priority 2019, published 2023).

Tests used:
Type in all cases: in vivo
[1] = system: cattle tick larvae (Rhipicephalus microplus), strain Parkhurst, resistant against synthetic pyrethroids; assay: Rhipicephalus (Boophilus) microplus in-vitro contact test, larval cattle tick; conditions: 5 μg/cm^2 (=500 g/ha), after 48 hours, read-out: efficacy (larvae dead or moribund)
How it was run: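 Acetone solutions of compound were coated on glass tube walls (900 ppm giving 5 μg/cm^2) and dried. 20–50 pyrethroid-resistant Parkhurst larvae were held per tube at 27° C and 85% relative humidity; after 48 h negative geotaxis scored efficacy as percent larvae dead or moribund.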

[2] = system: adult cat fleas (Ctenocephalides felis); assay: Ctenocephalides felis in-vitro contact test, adult cat flea; conditions: 5 μg/cm^2 (=500 g/ha), after 48 hours, read-out: efficacy (fleas dead or moribund)
How it was run: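 Acetone solutions were coated on glass tube walls, 900 ppm giving 5 μg/cm^2. After drying, 5-10 adult fleas per tube were held 48 h at room temperature. Fleas unable to climb away from a 45-50 °C heating plate within 5 min were scored dead or moribund, as % efficacy.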

[3] = system: larvae of the banded cucumber beetle (Diabrotica balteata); assay: Diabrotica balteata spray test; conditions: 168 h, after 7 days, wheat seeds, read-out: efficacy (seedlings grown up); for pest or weed control at 32 µg/disc, 100 g/ha: 100 g/ha (=32 μg/well)
How it was run: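 Germinated wheat seedlings (5 per well, agar plates) sprayed with compound in acetone/DMF diluted in water with 1000 ppm emulsifier, then infested with 10-20 larvae per unit. Efficacy scored after 7 days as % seedling growth relative to untreated, uninfested control (100% = normal growth, 0% = none).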

[4] = system: southern root-knot nematode (Meloidogyne incognita); assay: Meloidogyne incognita test; conditions: 336 h, after 14 days, read-out: nematicidal activity (gall formation)
Procedure: Solvent: 125.0 parts by weight of acetone
To produce a suitable preparation of active compound, 1 part by weight of active compound is mixed with the stated amount of solvent, and the concentrate is diluted with water to the desired concentration.
Vessels are filled with sand, a solution of the active ingredient, a suspension containing eggs and larvae of the southern root-knot nematode (Meloidogyne incognita) and salad seeds. The salad seeds germinate and the seedlings grow. Galls develop in the roots.
After 14 days the nematicidal activity is determined on the basis of the percentage of gall formation. 100% means no galls were found and 0% means the number of galls found on the roots of the treated plants was equal to that in untreated control plants.

[5] = system: larvae of the southern green stink bug (Nezara viridula); assay: Nezara viridula spray test; conditions: in Hordeum vulgare, 96 h
How it was run: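 Barley plants infested with Nezara viridula larvae were sprayed with compound in acetone/dimethylformamide, diluted in water containing 1000 ppm alkylarylpolyglycol ether emulsifier. Mortality (%) was scored after 4 days; 100% means all stink bugs killed.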

[6] = system: fall armyworm larvae (Spodoptera frugiperda); assay: Spodoptera frugiperda spray test (maize leaf sections); conditions: 168 h
How it was run: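 Maize leaf sections were sprayed with compound formulated in acetone/DMF and diluted in water containing 1000 ppm emulsifier. Once dry, sections were infested with fall armyworm larvae. Mortality (%) was scored after 7 days.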

[7] = system: adult brown dog ticks (Rhipicephalus sanguineus); assay: Rhipicephalus sanguineus in-vitro contact test with adult brown dog ticks; conditions: after 48 hours, read-out: efficacy (ticks dead or moribund); for pest or weed control at 1 µg/cm2, 100 g/ha: 1 μg/cm^2 (=100 g/ha); for pest or weed control at 5 µg/cm2, 500 g/ha: 5 μg/cm^2 (=500 g/ha)
How it was run: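 Compound in acetone coated onto glass tube inner walls at 900 ppm, giving 5 μg/cm^2. Adult ticks (5-10 per tube) held at room temperature for 48 h, then placed on a 45-50° C. heating plate for up to 5 min. Ticks unable to climb away counted dead or moribund; efficacy given as % dead/moribund.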

[8] = system: green peach aphid (Myzus persicae); assay: Myzus persicae spray test; conditions: foliar, 120 h, 100 g/ha, after 5 days, Chinese cabbage leaf disks
How it was run: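 Chinese cabbage leaf disks carrying all instars of Myzus persicae were sprayed with compound. The formulation was acetone/dimethylformamide diluted in water with 1000 ppm alkylarylpolyglycol ether emulsifier. Percent mortality was scored after 5 days, with 100% meaning all aphids killed.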

[9] = system: brown planthopper (Nilaparvata lugens); assay: Nilaparvata lugens spray test; conditions: in Oryza sativa, 96 h
How it was run: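 Rice plants (Oryza sativa) sprayed with compound in acetone/DMF diluted in water containing 1000 ppm alkylarylpolyglycol ether emulsifier, then infested with planthoppers. Mortality % scored after 4 days (100% = all killed, 0% = none killed).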

[10] = system: caterpillars of the fall army worm (Spodoptera frugiperda); assay: Spodoptera frugiperda spray test (cotton leaves); conditions: 168 h
Procedure: Solvent: 14 parts by weight of dimethylformamide
Emulsifier: alkylaryl polyglycol ether
To produce a suitable preparation of active compound, 1 part by weight of active compound is mixed with the stated amount of solvent and is diluted with water, containing an emulsifier concentration of 1000 ppm, to the desired concentration. Further test concentrations are prepared by dilution with emulsifier containing water. Ammonium salt and/or penetration enhancer in a dosage of 1000 ppm are added to the desired concentration if necessary.
Cotton leaves (Gossypium hirsutum) are treated by being sprayed with the preparation of the active compound of the desired concentration and are infested with caterpillars of the fall army worm (Spodoptera frugiperda).
After 7 days mortality in % is determined. 100% means all the caterpillars have been killed and 0% means none of the caterpillars have been killed.

[11] = system: adult engorged female ticks (Rhipicephalus microplus); assay: Rhipicephalus (Boophilus) microplus injection test; conditions: 168 h, egg deposition after 7 days, read-out: efficacy (infertile eggs); for pest or weed control at 0.02 mg: 20 μg/animal; for pest or weed control at 0.004 mg: 4 μg/animal
How it was run: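 Compound was dissolved in DMSO at 10 mg per 0.5 mL and diluted with DMSO to the test concentration. Five engorged adult females received a 1 μL abdominal injection and were kept in a climate chamber. After 7 days, fertile egg deposition was scored, with unclear eggs held until hatching at about 42 days; 100% efficacy means all eggs were infertile.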

[12] = system: adult unfed cat fleas (Ctenocephalides felis); assay: Ctenocephalides felis oral test; conditions: 48 h, 100 ppm in cattle blood, after 2 days
How it was run: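 About 20 adult unfed Ctenocephalides felis fed through parafilm on cattle blood dosed with compound (DMSO stock diluted in blood), blood chamber at 37°C, fleas at room temperature. Mortality (%) scored after 2 days; 100% means all fleas killed.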

[13] = system: green peach aphid (Myzus persicae); assay: Myzus persicae oral test; conditions: 120 h
How it was run: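 Acetone stock (1 pbw compound/100 pbw solvent) diluted in water; mixed with sugar-supplemented IPL41 medium; parafilm-sealed; mixed aphid population sucks through film; mortality % read at 5 d.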

[14] = system: cattle ticks (Rhipicephalus microplus) strain Parkhurst, SP-resistant; assay: Rhipicephalus (Boophilus) microplus dip test; conditions: 100 ppm, egg deposition after 7 days
Procedure: Test animal: cattle ticks (Rhipicephalus microplus) strain Parkhurst, SP-resistant
Solvent: dimethyl sulfoxide
To produce a suitable preparation of active compound, 10 mg of active compound are dissolved in 0.5 mL solvent, and the concentrate is diluted with water to the desired concentration.
This compound solution is pipetted into tubes. 8-10 engorged, adult, female cattle ticks (Rhipicephalus microplus) are placed in perforated tubes. These tubes are immersed in the aqueous compound solution until the ticks are completely moistened. After the liquid has drained off, the ticks are transferred to a filter paper in a plastic tray and stored in a climate chamber.
After 7 days egg deposition of fertile eggs is monitored. Eggs where fertility is not visible are stored in a climate chamber till hatching after about 42 days. An efficacy of 100% means all eggs are infertile; 0% means all eggs are fertile.

SMILES	pest or weed control at 5 µg/cm2 [1]	pest or weed control at 5 µg/cm2 [2]	pest or weed control at 32 µg/disc, 100 g/ha [3]	pest or weed control at 20 ppm [4]	mortality at 500 g/ha [5]	mortality at 100 g/ha [6]	pest or weed control at 1 µg/cm2, 100 g/ha [7]	pest or weed control at 5 µg/cm2, 500 g/ha [7]	mortality at 100 g/ha [8]	mortality at 500 g/ha [9]	mortality at 20 ppm [10]	pest or weed control at 0.02 mg [11]	mortality at 100 ppm [12]	mortality at 4 ppm [13]	pest or weed control at 0.004 mg [11]	pest or weed control at 160 µg/disc, 500 g/ha ([3]; 500 g/ha (=160 μg/well))	mortality at 100 g/ha [5]	mortality at 500 g/ha [6]	efficacy (infertile eggs) [14]
C[C@H](NC(=O)c1cc(C(F)(F)F)cc(C(F)(F)F)c1)c1nc(N2CCOCC2)nn1-c1ncccn1 [I-145, N-[(1S)-1-(5-morpholino-2-pyrimidin-2-yl-1,2,4-triazol-3-yl)ethyl]-3,5-bis(trifluoromethyl)benzamide]	100%	80%	100%	100%	100%	100%	–	–	–	–	–	–	–	–	–	–	–	–	–
CNc1nc([C@H](C)NC(=O)c2cc(Br)cc(OC(F)(F)F)c2)n(-c2ncccn2)n1 [I-130]	100%	100%	100%	90%	100%	100%	100%	100%	100%	90%	100%	–	–	–	–	–	–	–	–
CC(NC(=O)c1cc(Cl)cc(Cl)c1)c1nc(-c2ncccn2)nn1-c1ncccn1 (stereo not drawn) [I-054]	–	–	–	90%	–	–	–	–	–	–	–	100%	100%	90%	–	–	–	–	–
CC(NC(=O)c1cc(Cl)cc(OC(F)(F)F)c1)c1nc(-c2ncccn2)nn1-c1ncccn1 (stereo not drawn) [I-051]	–	–	–	100%	100%	–	–	–	–	–	–	100%	100%	100%	100%	100%	100%	100%	–
CNc1nc([C@H](C)NC(=O)c2cc(OC(F)(F)F)cc(C3CC3)c2)n(-c2ncccn2)n1 [I-132]	100%	100%	100%	90%	100%	100%	100%	100%	90%	–	100%	–	–	–	–	–	–	–	–
CC(NC(=O)c1cc(C(F)(F)F)cc(C(F)(F)F)c1)c1nc(N(C)C(=O)OC(C)(C)C)nn1-c1ncccn1 (racemic) [I-009, tert-butyl N-[5-[1-[[3,5-bis(trifluoromethyl)benzoyl]amino]ethyl]-1-pyrimidin-2-yl-1,2,4-triazol-3-yl]-N-methyl-carbamate]	100%	90%	100%	–	–	100%	80%	100%	–	–	–	–	100%	100%	100%	–	100%	–	80%
